Experimental data reported in ChEMBL document CHEMBL5512682, “Discovery of BMS-986308: A Renal Outer Medullary Potassium Channel Inhibitor for the Treatment of Heart Failure” (J Med Chem, 2024).

Key:
[1] = target: hERG (KCNH2) (Homo sapiens, UniProt Q12809); test: Inhibition of human ERG expressed in HEK293 cells at 1 uM incubated for 2 to 5 mins by Manual patch clamp assay relative to control; format: toxicity, cell-based; conditions: HEK293 cells expressing hERG, time 2-5 min
[2] = target: Voltage-gated inwardly rectifying potassium channel KCNH2 (Homo sapiens, UniProt Q12809); test: Inhibition of human ERG expressed in HEK293 cells incubated for 2 to 5 mins by Manual patch clamp assay; format: toxicity, cell-based
[3] = Metabolic stability in human liver microsomes assessed as parent compound remaining at 10 uM measured after 10 mins in presence of NADPH and GSH by UPLC-MS/MS analysis; format: ADME, Microsome; conditions: read-out: Stability
[4] = Metabolic stability in rat liver microsomes assessed as parent compound remaining at 10 uM measured after 10 mins in presence of NADPH and GSH by UPLC-MS/MS analysis; format: ADME, Microsome; conditions: read-out: Stability
[5] = organism: Homo sapiens; test: Selectivity ratio of IC50 for inhibition of ERG expressed in HEK293 cells to IC50 for inhibition of human ROMK expressed in T-REX-CHO cells incubated for 30 mins by thallium flux assay; format: cell-based
[6] = organism: Homo sapiens; test: Selectivity ratio of IC50 for inhibition of ERG expressed in HEK293 cells to IC50 for inhibition of human ROMK expressed in T-REX-CHO cells incubated for 3 to 8 mins by whole cell manual patch clamp assay; format: cell-based
[7] = target: T1, ATP-sensitive inward rectifier potassium channel 1 (Homo sapiens, UniProt P48048)
T1 sequence (P48048 whole entry): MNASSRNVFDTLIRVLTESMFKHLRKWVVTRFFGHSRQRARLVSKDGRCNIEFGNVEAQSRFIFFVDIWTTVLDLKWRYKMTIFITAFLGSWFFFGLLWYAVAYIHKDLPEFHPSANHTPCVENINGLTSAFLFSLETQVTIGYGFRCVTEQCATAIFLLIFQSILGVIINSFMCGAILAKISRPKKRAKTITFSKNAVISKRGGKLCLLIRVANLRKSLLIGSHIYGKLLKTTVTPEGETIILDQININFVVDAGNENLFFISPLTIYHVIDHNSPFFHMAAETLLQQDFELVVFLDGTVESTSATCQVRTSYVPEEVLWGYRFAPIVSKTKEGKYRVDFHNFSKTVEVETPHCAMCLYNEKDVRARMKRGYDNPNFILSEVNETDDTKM
Description: Inhibition of human ROMK expressed in T-REX-CHO cells incubated for 30 mins by thallium flux assay

[8] = target: T1, ATP-sensitive inward rectifier potassium channel 1; remark: listed apart in the source
Description: Inhibition of human ROMK expressed in T-REX-CHO cells incubated for 3 to 8 mins by whole cell manual patch clamp assay

Chain of hERG (KCNH2) (Q12809 whole entry): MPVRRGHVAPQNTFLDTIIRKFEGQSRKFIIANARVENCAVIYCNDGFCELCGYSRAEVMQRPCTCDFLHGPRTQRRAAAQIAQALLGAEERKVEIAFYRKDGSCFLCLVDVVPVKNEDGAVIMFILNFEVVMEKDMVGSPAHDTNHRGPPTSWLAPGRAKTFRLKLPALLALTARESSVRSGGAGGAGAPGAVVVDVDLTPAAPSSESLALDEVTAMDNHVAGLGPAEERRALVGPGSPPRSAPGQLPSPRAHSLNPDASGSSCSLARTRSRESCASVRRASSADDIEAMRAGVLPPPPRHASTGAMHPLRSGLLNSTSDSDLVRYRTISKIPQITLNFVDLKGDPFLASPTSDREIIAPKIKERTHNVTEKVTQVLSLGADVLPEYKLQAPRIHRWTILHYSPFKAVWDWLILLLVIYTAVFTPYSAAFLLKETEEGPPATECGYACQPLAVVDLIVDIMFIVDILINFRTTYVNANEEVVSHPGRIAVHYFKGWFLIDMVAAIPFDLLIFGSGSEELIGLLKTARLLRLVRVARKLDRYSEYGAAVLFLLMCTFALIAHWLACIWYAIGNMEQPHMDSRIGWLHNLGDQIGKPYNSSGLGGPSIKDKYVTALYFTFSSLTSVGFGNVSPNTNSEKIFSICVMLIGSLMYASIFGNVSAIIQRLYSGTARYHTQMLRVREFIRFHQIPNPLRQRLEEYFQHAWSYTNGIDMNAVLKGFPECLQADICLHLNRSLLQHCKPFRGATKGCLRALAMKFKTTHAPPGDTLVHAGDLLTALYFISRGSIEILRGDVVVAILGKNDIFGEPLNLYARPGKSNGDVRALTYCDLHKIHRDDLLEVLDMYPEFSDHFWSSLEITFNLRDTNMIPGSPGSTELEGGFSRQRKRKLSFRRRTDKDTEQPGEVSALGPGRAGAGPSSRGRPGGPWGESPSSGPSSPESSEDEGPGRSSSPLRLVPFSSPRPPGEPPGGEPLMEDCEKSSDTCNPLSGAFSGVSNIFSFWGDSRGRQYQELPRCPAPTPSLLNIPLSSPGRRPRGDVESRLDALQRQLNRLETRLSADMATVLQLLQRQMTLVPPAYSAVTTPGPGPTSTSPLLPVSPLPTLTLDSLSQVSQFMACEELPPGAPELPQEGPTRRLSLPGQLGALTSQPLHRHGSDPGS
Chain of Voltage-gated inwardly rectifying potassium channel KCNH2 (Q12809 whole entry): as above

remaining at 10 min, 10 µM [3] [%]	remaining at 10 min, 10 µM [4] [%]	IC50 [7] [nM]	IC50 [8] [nM]	Structure (SMILES)	inhibition at 1 µM [1] [%]	IC50 [2] [nM]	Ratio IC50 [5]	Ratio IC50 [6]
62	96	8.8	9.4	Cc1c([C@@H](O)CN2CCc3nc(-c4ccc(C#N)c(F)c4)ncc3C2)ccc2c1COC2=O	71	410	40	40
–	–	61	37	N#Cc1ccc(-c2ccc3c(n2)CCN(C[C@H](O)c2ccc4c(c2)COC4=O)C3)cc1F	80	–	–	–
72	8	59	13	N#Cc1ccc(-c2ccc3c(c2)CCN(CCc2ccc4c(c2)COC4=O)C3)cc1F	–	10	–	–
